Experimental data as given in PMC4582818, “Identification of novel metabolic interactions controlling carbon flux from xylose to ethanol in natural and recombinant yeasts” (Biotechnology for Biofuels, 2015).
Values belong to the molecule of their own block, whether it stands above or below them.

What was measured:
CtXR [1] = molecular target: T1, CtXR (Yamadazyma tenuis, UniProt O74237); experiment: steady-state kinetics; type: biochemical
T1 construct: gene XYL1; xylose reductase of C. tenuis CBS4435; preparation described only in Additional file 3
T1 sequence (O74237 1-322): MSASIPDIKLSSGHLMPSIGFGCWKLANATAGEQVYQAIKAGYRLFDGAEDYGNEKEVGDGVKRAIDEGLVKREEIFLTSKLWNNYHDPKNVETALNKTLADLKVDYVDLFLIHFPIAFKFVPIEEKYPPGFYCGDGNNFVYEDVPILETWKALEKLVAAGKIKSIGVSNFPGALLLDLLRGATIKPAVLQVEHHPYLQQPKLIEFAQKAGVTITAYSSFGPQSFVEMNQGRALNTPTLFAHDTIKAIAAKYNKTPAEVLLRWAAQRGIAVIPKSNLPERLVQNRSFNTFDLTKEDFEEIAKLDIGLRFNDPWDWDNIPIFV
Excerpt: (§1) steady-state kinetics on CtXR

CtG6PDH = molecular target: T2, CtG6PDH (Yamadazyma tenuis, UniProt G3B8L7); experiment: enzyme kinetics, product inhibition; type: cell-based; details: competitive product inhibition; read-out: K i,NADPH
T2 construct: gene CANTEDRAFT_115211; native enzyme, probably in cell-free extract of CBS4435 (details only in Additional file 3)
T2 sequence (G3B8L7 1-502): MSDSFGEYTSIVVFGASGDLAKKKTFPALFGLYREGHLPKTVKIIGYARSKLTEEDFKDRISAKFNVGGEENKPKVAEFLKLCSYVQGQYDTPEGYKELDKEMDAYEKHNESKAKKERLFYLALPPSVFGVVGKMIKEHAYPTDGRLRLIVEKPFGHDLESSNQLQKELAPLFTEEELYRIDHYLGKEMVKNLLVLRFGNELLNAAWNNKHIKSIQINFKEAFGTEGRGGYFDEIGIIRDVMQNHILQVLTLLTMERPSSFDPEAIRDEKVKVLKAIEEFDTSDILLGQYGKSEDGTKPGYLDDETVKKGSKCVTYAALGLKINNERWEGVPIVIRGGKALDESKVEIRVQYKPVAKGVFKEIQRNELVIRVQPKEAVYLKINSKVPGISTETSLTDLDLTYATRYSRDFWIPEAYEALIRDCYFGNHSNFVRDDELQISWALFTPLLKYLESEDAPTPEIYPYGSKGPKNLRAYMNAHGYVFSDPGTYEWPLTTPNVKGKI
Excerpt: enzyme kinetics, product inhibition on CtG6PDH

CtXR [2] = molecular target: T1, CtXR; experiment: ligand-binding analysis by fluorescence spectroscopy; details: read-out: NADP(H) (R 2) / PP (R 5), UG (R 9), LG (R 10)
Excerpt: ligand-binding analysis by fluorescence spectroscopy on CtXR

steady-state kinetics [3] = substrate: NC(=O)c1ccc[n+]([C@@H]2O[C@H](COP(=O)(O)OP(=O)(O)OC[C@H]3O[C@@H](n4cnc5c(N)ncnc54)[C@H](OP(=O)(O)O)[C@@H]3O)[C@@H](O)[C@H]2O)c1; experiment: steady-state kinetics; type: biochemical, Yamadazyma tenuis; details: xylitol oxidation; pH 7.5; 25.0 °C; varied: cofactor
Excerpt: as §1

steady-state kinetics [4] = substrate: NC(=O)c1ccc[n+]([C@@H]2O[C@H](COP(=O)(O)OP(=O)(O)OC[C@H]3O[C@@H](n4cnc5c(N)ncnc54)[C@H](O)[C@@H]3O)[C@@H](O)[C@H]2O)c1; experiment: steady-state kinetics; type: biochemical, Yamadazyma tenuis; details: xylitol oxidation; pH 7.5; 25.0 °C; varied: cofactor
Excerpt: as §1

steady-state kinetics [5] = substrate: NC(=O)C1=CN([C@@H]2O[C@H](COP(=O)(O)OP(=O)(O)OC[C@H]3O[C@@H](n4cnc5c(N)ncnc54)[C@H](O)[C@@H]3O)[C@@H](O)[C@H]2O)C=CC1; experiment: steady-state kinetics; type: biochemical, Yamadazyma tenuis; details: xylose reduction; pH 7.5; 25.0 °C; varied: cofactor
Excerpt: as §1

steady-state kinetics [6] = substrate: NC(=O)C1=CN([C@@H]2O[C@H](COP(=O)(O)OP(=O)(O)OC[C@H]3O[C@@H](n4cnc5c(N)ncnc54)[C@H](OP(=O)(O)O)[C@@H]3O)[C@@H](O)[C@H]2O)C=CC1; experiment: steady-state kinetics; type: biochemical, Yamadazyma tenuis; details: xylose reduction; pH 7.5; 25.0 °C; varied: cofactor
Excerpt: as §1

NAD(H) (R 1) (CtXR [1]; dissociation constant of NADH in the rate equation, xylose reduction): 0.18 ± 0.04 mM
Molecule: NC(=O)C1=CN([C@@H]2O[C@H](COP(=O)(O)OP(=O)(O)OC[C@H]3O[C@@H](n4cnc5c(N)ncnc54)[C@H](O)[C@@H]3O)[C@@H](O)[C@H]2O)C=CC1 [NADH]

Ki (CtG6PDH): 200 µM
Molecule: NC(=O)C1=CN([C@@H]2O[C@H](COP(=O)(O)OP(=O)(O)OC[C@H]3O[C@@H](n4cnc5c(N)ncnc54)[C@H](OP(=O)(O)O)[C@@H]3O)[C@@H](O)[C@H]2O)C=CC1 [NADPH]

Molecule: NC(=O)c1ccc[n+]([C@@H]2O[C@H](COP(=O)(O)OP(=O)(O)OC[C@H]3O[C@@H](n4cnc5c(N)ncnc54)[C@H](OP(=O)(O)O)[C@@H]3O)[C@@H](O)[C@H]2O)c1 [NADP^+]
Kd (CtXR [2]): 5.9 ± 0.4 µM

Ki (CtXR [1]; read-out: NAD(H) (R 1)): 344 ± 30 µM
Molecule: NC(=O)c1ccc[n+]([C@@H]2O[C@H](COP(=O)(O)OP(=O)(O)OC[C@H]3O[C@@H](n4cnc5c(N)ncnc54)[C@H](O)[C@@H]3O)[C@@H](O)[C@H]2O)c1 [NAD^+]

B1: CtXR (Yamadazyma tenuis) (protein)
chain: MSASIPDIKLSSGHLMPSIGFGCWKLANATAGEQVYQAIKAGYRLFDGAEDYGNEKEVGDGVKRAIDEGLVKREEIFLTSKLWNNYHDPKNVETALNKTLADLKVDYVDLFLIHFPIAFKFVPIEEKYPPGFYCGDGNNFVYEDVPILETWKALEKLVAAGKIKSIGVSNFPGALLLDLLRGATIKPAVLQVEHHPYLQQPKLIEFAQKAGVTITAYSSFGPQSFVEMNQGRALNTPTLFAHDTIKAIAAKYNKTPAEVLLRWAAQRGIAVIPKSNLPERLVQNRSFNTFDLTKEDFEEIAKLDIGLRFNDPWDWDNIPIFV
notes: xylose reductase of C. tenuis CBS4435; preparation described only in Additional file 3
Km (steady-state kinetics [3]): 8 ± 1 µM | Km (steady-state kinetics [4]): 19 ± 5 µM | Km (steady-state kinetics [5]): 40 ± 10 µM | Km (steady-state kinetics [6]): 5 ± 2 µM
